We go through two compounds from US5602153A, “Method of using 1-arylheteroarylalkyl substituted-1H-1,2,4-triazole compounds for treatment of a giaucoma disorder” (G.D. Searle & Co., priority 1993, dated 1997).

The subject of the assay is pressor response to AII. Kind of assay: Assay C: In Vivo Intragastric Pressor Assay Response for AII Antagonists. Also noted: species or system rat (male Sprague-Dawley). The following applies: po; 3 mg/kg i.g., rat, AII 30 ng/kg bolus. As to the method:
Assay C: In Vivo Intragastric Pressor Assay Response for AII Antagonists of the Invention
Male Sprague-Dawley rats weighing 225-300 grams were anesthetized with methohexital (30 mg/kg, i.p.) and catheters were implanted into the femoral artery and vein. The catheters were tunneled subcutaneously to exit dorsally, posterior to the head and between the scapulae. The catheters were filled with heparin (1000 units/ml of saline). The rats were returned to their cage and allowed regular rat chow and water ad libitum. After full recovery from surgery (3-4 days), rats were placed in Lucite holders and the arterial line was connected to a pressure transducer. Arterial pressure was recorded on a Gould polygraph (mmHg). Angiotensin II was administered as a 30 ng/kg bolus via the venous catheter delivered in a 50 μl volume with a 0.2 ml saline flush. The pressor response in mmHg was measured by the difference from pre-injectionarterial pressure to the maximum pressure achieved. The AII injection was repeated every 10 minutes until three consecutive injections yielded responses within 4 mmHg of each other. These three responses were then averaged and represented the control response to AII. The test compound was suspended in 0.5% methylcellulose in water and was administered by gavage. The volume administered was 2 ml/kg body weight. The standard dose was 3 mg/kg. Angiotensin II bolus injections were given at 30, 45, 60, 75, 120, 150, and 180 minutes after gavage. The pressor response to AII was measured at each time point. The rats were then returned to their cage for future testing. A minimum of 3 days was allowed between tests. Percent inhibition was calculated for each time point following gavage by the following formula: [(Control Response-Response at time point)/Control Response]×100.

Compound `CCCCc1nc(CCCC)n(Cc2ccc(-c3ccccc3-c3nnn[nH]3)cn2)n1` [Example 1, 5-[2-[6-[(3,5-dibutyl-1H-1,2,4-triazol-1-yl)methyl]-3-pyridinyl]phenyl]-1H-tetrazole] registered an inhibition in vivo at 3 mg/kg of 20%.

In the case of `CCCCc1nc(CCCC)n(Cc2ccc(-c3ccccc3-c3nnn[nH]3)nc2)n1` [Example 3, 5-[2-[5-[(3,5-dibutyl-1H-1,2,4-triazol-1-yl)methyl]-2-pyridinyl]phenyl]-1H-tetrazole], the inhibition in vivo at 3 mg/kg was found to be 40%.

The inhibition in vivo is the share of the control response that was lost under treatment. Low readings indicate a response near the control, high ones a response far below the control.
